{"source": "patent US6040149A", "about": "“Assay for identifying agents which act on the ceramide-activated protein kinase, kinase suppressor of ras, and methods of using said agents” (priority 1997, dated 2000)", "key": {"[1]": {"test_system": "ceramide-activated protein kinase", "experiment": "Ceramide-activated protein kinase activity (EGFR peptide) in EL-4 cell fractions", "settings": "baseline, EL-4 membranes", "method": "Effect of IL-1β on ceramide-activated protein kinase activity. […] Homogenates were centrifuged at 500×g for 5 minutes to remove nuclei and at 200,000×g for 30 minutes to prepare microsomal membranes. Membranes were resuspended into homogenizing buffer (2.2 μg membrane protein μl^-1). For assay of kinase activity, the reaction mixture contained 20 μl of microsomal membrane, 40 μl EGFR peptide (4 mg ml^-1 in 25 mM Hepes, pH 7.4) and 100 μl buffer (50 mM HEPES, pH 7.4, 20 mM MgCl2). Phosphorylation was initiated at 22° C. by addition of 40 μl [γ-^32 P] ATP (100 μM final concentration) and terminated at the indicated times by addition of 40 μl of 0.5 M ATP in 90% formic acid. Phosphorylated peptide was eluted from a C18 Sep pak cartridge (Millipore), lyophilized, and resolved by C18 reverse phase HPLC using a linear gradient of acetonitrile. […] All assays were performed under conditions determined as linear for time and enzyme concentration. Enzyme activity was determined from the percent conversion of substrate to product and the specific radioactivity of [γ-^32 P] ATP. […] Values (mean±range) represent duplicate determinations from two experiments.\nActivity was measured by the transfer of ^32 P from the γ-position of ATP to EGFR peptide (AA 663-681 of the EGFR). The effect of IL-1β on kinase activity was determined using microsomal membranes derived from cells stimulated with IL-1β."}, "[2]": {"test_system": "ceramide-activated protein kinase", "settings": "nuclei-free supernates, ref. [40], cited from earlier work"}, "[3]": {"test_system": "ceramide-activated protein kinase", "experiment": "EGFR peptide phosphorylation by kinase in A-431 microsomal membranes / postnuclear supernatant", "format": "biochemical, human (A-431 epidermoid carcinoma cells)", "method": "Kinetics of ^32 Pi incorporation into the EGFR peptide. […] The reaction was initiated by addition of 50 μl of [γ-^32 P]ATP (150 μM final concentration) and terminated by addition of 50 μl of 0.5 M ATP in 90% (vol/vol) formic acid. Samples were spotted on phosphocellulose paper, washed with 1 M acetic acid/4 mM pyrophosphate, and ^32 P incorporation was measured by liquid-scintillation counting, as described. A boiled protein blank was subtracted from each data value. The data (means) represent duplicate samples from one of two similar experiments. […]\nKinetics of ceramide-induced ^32 Pi incorporation into EGFR peptide. Peptide phosphorylation was done as described in FIG. 2 in the absence (.smallcircle.) or presence (.circle-solid.) of 0.5 μM C8 -ceramide. Phosphorylated peptide was resolved by HPLC. Values (means) represent data from three experiments.\nConcentration-dependence of ceramide-induced ^32 Pi incorporation into EGFR peptide. Peptide phosphorylation reactions were done as described for FIG. 2, for 2 minutes, using various concentrations of ceramide (0.001-3 μM). Phosphorylated peptide was resolved by HPLC. Values (means) represent data from three experiments. […]\nPhosphorylation was initiated at 22° C. by addition of 50 μl of [γ-^32 P] ATP (150 μM final concentration; 4000 dpm/pmol). For studies with lipid activators, ceramide and other lipids were dried under N2 and resuspended in the kinase assay buffer by bath sonication for 2 minutes at 37° C.\nPhosphorylated peptide was quantified by two separate methods. For initial studies, samples were spotted on phosphocellulose paper, washed in 1 M acetic acid/4 mM pyrophosphate and subjected to liquid scintillation counting, according to methods well known to those skilled in the art. Values obtained from a boiled blank or a sample lacking peptide were subtracted from each determination. Alternatively, HPLC was done according to methods well known to those skilled in the art. For these studies, samples were first applied to a C18 Sep-Pak cartridge and eluted with 99.9% acetonitrile/0.1% trifluoroacetic acid. The eluates were lyophilized, resuspended in 6 M guanidine hydrochloride/200 mM Tris, pH 8.5 and applied to a C18 reverse-phase column (Dynamax, 4.6 mm i.d., Rainin, Woburn, Mass.). The peptide was eluted with a linear gradient (1% per minute) of acetonitrile at a flow rate of 1 ml/minute and was detected by measuring the Cerenkov radiation associated with 1-ml fractions."}, "CAP kinase": {"test_system": "CAP kinase", "experiment": "Phosphorylation of Raf-1 peptides by CAP kinase", "format": "biochemical, bovine (brain)"}, "[4]": {"test_system": "ceramide-activated protein kinase", "experiment": "CAP kinase activation in HL-60 cells (renaturation and autophosphorylation)", "format": "cell-based, human (HL-60 cells)", "method": "Stimulation of ceramide-activated protein (CAP) kinase by lipid A. On the day of an experiment, HL-60 cells were resuspended (1×10^6 cells ml^-1) into serum-free RPMI 1640 containing 5 μg ml^-1 insulin and transferrin. After 2 h, cells were stimulated with lipid A (Escherichia Coli) or diluent (DMSO, <0.01%). Ceramide-activated protein kinase contained within microsomal membranes was detected by renaturation and autophosphorylation. Briefly, membrane proteins (200 μg per lane) were separated by SDS-PAGE (10%), and the gel was washed with two changes of buffer (50 mM Tris, pH 7.4, 5 mM 2-mercaptoethanol) containing 20% 2-propanol at room temperature for 1 h, and once in buffer without 2-propanol for 1 h. Denaturation was accomplished by incubation of the gel in two changes of 6M guanidinium HCl in wash buffer for 1 h each. Renaturation was accomplished by incubation of the gel overnight at 4° C. in wash buffer containing 0.04% Tween-20. The gel was then equilibrated for 10 min at room temperature in kinase reaction mixture (25 mM HEPES, pH 7.4, 10 mM MgCl2, 0.5 mM EGTA and 5 mM NaF) and [γ-^32 p] ATP (50 μM final concentration; 1000 dpm pmol^-1) was added. Autophosphorylation was terminated by removal of the reaction mixture. The gel was washed with 6 changes of buffer (5% trichloroacetic acid, 1% sodium pyrophosphate) for 2 h and subjected to autoradiography. Top panel--Time course of lipid A activation. Bottom panel--Dose response at 5 minutes of lipid A stimulation. Autoradiograms represent one of three similar studies in both panels A and B.\nOn the day of an experiment, cells were resuspended (1×10^6 cells ml^-1) into serum-free RPMI 1640 containing 5 μg ml^-1 insulin and transferrin. After 2 h, cells were stimulated with lipid A or diluent (DMSO, <0.01% ). […] The postnuclear supernate was centrifuged at 200,000×g for 30 min and microsomal membranes were resuspended ([…]) into homogenizing buffer. Ceramide-activated protein kinase was detected by renaturation and autophosphorylation. Briefly, membrane proteins (200 μg per lane) were separated by SDS-PAGE (10%), and the gel was washed with two changes of buffer (50 mM Tris, pH 7.4, 5 mM 2-mercaptoethanol) containing 20% 2-propanol at room temperature for 1 h, and once in buffer without 2-propanol for 1 h. Denaturation was accomplished by incubation of the gel in two changes of 6M guanidinium HCl in wash buffer for 1 h each. Renaturation was accomplished by incubation of the gel overnight at 4° C. in wash buffer containing 0.04% Tween-20. The gel was then equilibrated for 10 min at room temperature in kinase reaction mixture (25 mM HEPES, pH 7.4, 10 mM MgCl2, 0.5 mM EGTA and 5 mM NaF) and [γ-^32 P] ATP (50 μM final concentration; 1000 dpm pmol^-1. Autophosphorylation was terminated by removal of the reaction mixture. The gel was washed with 6 changes of buffer (5% trichloracetic acid, 1% sodium pyrophosphate) for 2 h and subjected to autoradiography.\nFor studies involving activation of ceramide-activated protein kinase by LPS, HL-60 cells (13×10^6 ml^-1) were handled as above, and LPS (Salmonella typhosa, 50 ng ml^-1), recombinant LBP (1.7 μg ml^-1) or both LPS and LBP were added for the times indicated. Isolation of microsomal membranes and autophosphorylation of ceramide-activated protein kinase were performed as above."}, "[5]": {"test_system": "ceramide-activated protein kinase", "experiment": "Ceramide-activated protein kinase activity toward MBP after HL-60 cell treatment", "format": "cell-based, human (HL-60 cells)", "method": "Membrane proteins (200 μg) from treated and untreated cells were subjected to SDS-PAGE and kinase activity was renatured as above. Autophosphorylation was allowed to proceed for 10 min and the gel was washed for 20 min with four changes of 50 mM HEPES buffer, pH 7.4. Gel slices were then excised from regions corresponding to 100-110 KDa, crushed, and incubated for 1 h with 10μ MBP (5 mg ml^-1) and 40 μl kinase reaction mixture in the presence of [γ-^32 P]ATP (50 μM final concentration). Reactions were terminated by addition of 10 μl Laemmli buffer, boiling for 3 min, and centrifugation of gel particles. The supernates were subjected to electrophoresis and autoradiography.\nSince prior studies correlated enhanced autophosphorylation of ceramide-activated protein kinase with increased kinase activity toward exogenous substrate, the effect of kinase activity toward MBP was examined after treatment of HL-60 cells with lipid A. For these studies, gel slices corresponding to ceramide-activated protein kinase were subjected to autophosphorylation for 10 min in buffer containing ATP (50 μM final concentration), and then were washed and incubated with MBP in a kinase reaction mixture containing [γ-^32 P]ATP [119]. After termination of reactions, samples were subjected electrophoresis and visualized by autoradiography. […] Enhancement of MBP phosphorylation was detectable at 0.5 min of lipid A treatment and maximal at 15 min."}}, "note": "Where two headings read alike, the source gives them in different places.", "data": [{"molecule": "Nc1ncnc2c1ncn2[C@@H]1O[C@H](COP(=O)(O)OP(=O)(O)OP(=O)(O)O)[C@@H](O)[C@H]1O", "note": "[ATP, adenosine triphosphate]", "values": [{"measurement": "Km", "setting": "[1]; read-out: Km (ATP)", "result": 70, "unit": "µM"}, {"measurement": "Km", "setting": "[2]; read-out: Km (ATP)", "result": 15, "unit": "µM"}, {"measurement": "Km", "setting": "[3]; 5 minutes, Lineweaver-Burke, read-out: apparent Km (ATP)", "result": 15, "unit": "µM"}]}, {"molecule": "NH2 -Glu-Leu-Val-Glu-Pro-Leu-Thr-Pro-Ser-Gly-Glu-Ala-Pro-Asn-Gln-Ala-Leu-Leu-Arg-COOH (H-ELVEPLTPSGEAPNQALLR-OH) [EGFR peptide]", "values": [{"measurement": "Km (EGFR peptide)", "setting": "[1]", "result": 0.15, "unit": "mg/mL"}, {"measurement": "maximum reaction velocity", "setting": "[1]", "result": "12.5 pmol min^-1 mg^-1 of microsomal membrane protein"}, {"measurement": "Km (peptide)", "setting": "[2]", "result": 0.25, "unit": "mg/mL"}, {"measurement": "apparent Km (EGFR peptide)", "setting": "[3]; 5 minutes, Lineweaver-Burke", "result": 0.25, "unit": "mg/mL"}, {"measurement": "apparent Vmax", "setting": "[3]; EGFR peptide phosphorylation", "result": "100-200 pmol.min^-1.mg of protein^-1"}]}, {"molecule": "RQRSTSTPNVHMVSAALPVDSRMIE [AALP (SEQ ID NO: 6)]", "values": [{"measurement": "phosphorylation of Raf-1 peptide by CAP kinase", "setting": "CAP kinase", "result": "failed to phosphorylate"}]}, {"molecule": "lipid A", "values": [{"measurement": "maximal activation of ceramide-activated protein kinase", "setting": "[4]; 500 nM lipid A, of control", "result": 5, "unit": "fold"}, {"measurement": "earliest detection of increased autophosphorylation", "setting": "[4]; early kinetics studies", "result": 30, "unit": "s"}, {"measurement": "concentration of maximal effect", "setting": "[4]; lipid A", "result": 500, "unit": "nM"}, {"measurement": "lowest effective concentration", "setting": "[4]; lipid A", "result": 10, "unit": "nM"}, {"measurement": "duration of enhanced autophosphorylation", "setting": "[4]; lipid A 5 μM", "result": 60, "unit": "min"}, {"measurement": "enhancement of autophosphorylation detected at", "setting": "[4]; lipid A 5 μM", "result": 5, "unit": "min"}, {"measurement": "onset of enhanced MBP phosphorylation", "setting": "[5]; lipid A", "result": 0.5, "unit": "min"}, {"measurement": "time of maximal MBP phosphorylation", "setting": "[5]; lipid A", "result": 15, "unit": "min"}, {"measurement": "enhancement of MBP phosphorylation", "setting": "[5]; lipid A-treated HL-60 cells", "result": 5, "unit": "fold"}]}]}
